Source: paper PMC6315694, “Synthesis of Pseudellone Analogs and Characterization as Novel T-type Calcium Channel Blockers” (Marine Drugs, 2018)

Legend:
[1] = test system: L-type calcium channel (CaV1); experiment: HVA calcium channel FLIPR assay, L-type (SH-SY5Y cells); type: cell-based, human; conditions: 1 µM CVID present, N = 3, mean ± SEM, read-out: IC50 CaV1 (HVA CaVs)
Protocol: (§1) The human embryonic kidney 293 (HEK 293) cell lines (from Emmanuel Bourinet, Montpellier, France) stably expressing CaV3.2 or CaV3.3 were cultured under 5% carbon dioxide at 37 °C in Dulbecco’s Modified Eagle Medium (DMEM) Glutamax (Gibco, Life Technologies, Carlsbad, CA, USA) supplemented with 10% (v/v) fetal bovine serum (FBS), 100 U/mL penicillin, 100 μg/mL streptomycin (Gibco, Life Technologies), and 750 μg/mL geneticin (G418) (Gibco, Life Technologies). The Chinese Hamster Ovary (CHO) cell lines (Emmanuel Bourinet, Montpellier, France) expressing CaV3.1 were cultured under 5% carbon dioxide at 37 °C in Alpha Minimum Essential Media (MEM) Glutamax (Gibco, Life Technologies), supplemented with 10% (v/v) fetal bovine serum (FBS) and 300 μg/mL geneticin (G418) (Gibco, Life Technologies). The human neuroblastoma SH-SY5 Y cells (Victor Diaz, Goettingen, Germany) were cultured under 5% carbon dioxide at 37 °C in RPMI 1640 antibiotic-free medium (Invitrogen, Carlsbad, CA, USA), supplemented with 15% FBS and 2 mM GlutaMAX™ (Invitrogen). D-PBS (Gibco, Life Technologies) was used to wash the cells, and 0.25% Trypsin-EDTA (Gibco, Life Technologies) was used to detach cells from the flask surface. They were split in a ratio of 1:5 (ideally 1000 cells/cm^2) when they reached 70%–80% confluence (every 2–3 days). Transiently transfected CaV3.1HEK293 T cells were used in FLIPR Assays. HEK 293 T cells were cultured under 5% carbon dioxide at 37 °C in DMEM supplemented with 10% (v/v) FBS. D-PBS was used to wash the cells, and 0.25% Trypsin-EDTA was used to detach cells from the flask surface. The cells were split and seeded at 6 million cells per T175 flask, to reach 70%–80% confluence after 24 h. The next day, 12 μg DNA of human CaV3.1 was incubated in 900 μL serum-free DMEM with 36 μL FuGENE HD transfection reagent (Promega Corporation, Madison, WI, US) (1:3 DNA/Fugene ratio) for 20 min, and then the mixture was added into the cell flask slowly, drop by drop. After the transfection, the cells were cultured under 5% carbon dioxide at 37 °C for 24 h and then moved to a 28 °C incubator.
SH-SY5Y cells were seeded into 384-well black wall clear bottom plates at a density of 15,000 cells per well, resulting in 90%–95% confluence after 24 h. […] The fluorescence readings were recorded and converted as described previously, and agonist containing 90 mM KCl + 5 mM CaCl2 was used in the second addition.
(§2) Data were plotted and analyzed using GraphPad Prism v7.0 (GraphPad Software Inc., San Diego, CA, USA). […]

[2] = biological target: T1, recombinant hCaV3.1 channels (Homo sapiens, UniProt O43497); experiment: Whole-cell patch-clamp QPatch 16 X, CaV3.1; type: cell-based
T1 construct: host or cells: probably the CHO line expressing CaV3.1 (inferred: the transient HEK293T cells are assigned to FLIPR)
T1 sequence (O43497 whole entry): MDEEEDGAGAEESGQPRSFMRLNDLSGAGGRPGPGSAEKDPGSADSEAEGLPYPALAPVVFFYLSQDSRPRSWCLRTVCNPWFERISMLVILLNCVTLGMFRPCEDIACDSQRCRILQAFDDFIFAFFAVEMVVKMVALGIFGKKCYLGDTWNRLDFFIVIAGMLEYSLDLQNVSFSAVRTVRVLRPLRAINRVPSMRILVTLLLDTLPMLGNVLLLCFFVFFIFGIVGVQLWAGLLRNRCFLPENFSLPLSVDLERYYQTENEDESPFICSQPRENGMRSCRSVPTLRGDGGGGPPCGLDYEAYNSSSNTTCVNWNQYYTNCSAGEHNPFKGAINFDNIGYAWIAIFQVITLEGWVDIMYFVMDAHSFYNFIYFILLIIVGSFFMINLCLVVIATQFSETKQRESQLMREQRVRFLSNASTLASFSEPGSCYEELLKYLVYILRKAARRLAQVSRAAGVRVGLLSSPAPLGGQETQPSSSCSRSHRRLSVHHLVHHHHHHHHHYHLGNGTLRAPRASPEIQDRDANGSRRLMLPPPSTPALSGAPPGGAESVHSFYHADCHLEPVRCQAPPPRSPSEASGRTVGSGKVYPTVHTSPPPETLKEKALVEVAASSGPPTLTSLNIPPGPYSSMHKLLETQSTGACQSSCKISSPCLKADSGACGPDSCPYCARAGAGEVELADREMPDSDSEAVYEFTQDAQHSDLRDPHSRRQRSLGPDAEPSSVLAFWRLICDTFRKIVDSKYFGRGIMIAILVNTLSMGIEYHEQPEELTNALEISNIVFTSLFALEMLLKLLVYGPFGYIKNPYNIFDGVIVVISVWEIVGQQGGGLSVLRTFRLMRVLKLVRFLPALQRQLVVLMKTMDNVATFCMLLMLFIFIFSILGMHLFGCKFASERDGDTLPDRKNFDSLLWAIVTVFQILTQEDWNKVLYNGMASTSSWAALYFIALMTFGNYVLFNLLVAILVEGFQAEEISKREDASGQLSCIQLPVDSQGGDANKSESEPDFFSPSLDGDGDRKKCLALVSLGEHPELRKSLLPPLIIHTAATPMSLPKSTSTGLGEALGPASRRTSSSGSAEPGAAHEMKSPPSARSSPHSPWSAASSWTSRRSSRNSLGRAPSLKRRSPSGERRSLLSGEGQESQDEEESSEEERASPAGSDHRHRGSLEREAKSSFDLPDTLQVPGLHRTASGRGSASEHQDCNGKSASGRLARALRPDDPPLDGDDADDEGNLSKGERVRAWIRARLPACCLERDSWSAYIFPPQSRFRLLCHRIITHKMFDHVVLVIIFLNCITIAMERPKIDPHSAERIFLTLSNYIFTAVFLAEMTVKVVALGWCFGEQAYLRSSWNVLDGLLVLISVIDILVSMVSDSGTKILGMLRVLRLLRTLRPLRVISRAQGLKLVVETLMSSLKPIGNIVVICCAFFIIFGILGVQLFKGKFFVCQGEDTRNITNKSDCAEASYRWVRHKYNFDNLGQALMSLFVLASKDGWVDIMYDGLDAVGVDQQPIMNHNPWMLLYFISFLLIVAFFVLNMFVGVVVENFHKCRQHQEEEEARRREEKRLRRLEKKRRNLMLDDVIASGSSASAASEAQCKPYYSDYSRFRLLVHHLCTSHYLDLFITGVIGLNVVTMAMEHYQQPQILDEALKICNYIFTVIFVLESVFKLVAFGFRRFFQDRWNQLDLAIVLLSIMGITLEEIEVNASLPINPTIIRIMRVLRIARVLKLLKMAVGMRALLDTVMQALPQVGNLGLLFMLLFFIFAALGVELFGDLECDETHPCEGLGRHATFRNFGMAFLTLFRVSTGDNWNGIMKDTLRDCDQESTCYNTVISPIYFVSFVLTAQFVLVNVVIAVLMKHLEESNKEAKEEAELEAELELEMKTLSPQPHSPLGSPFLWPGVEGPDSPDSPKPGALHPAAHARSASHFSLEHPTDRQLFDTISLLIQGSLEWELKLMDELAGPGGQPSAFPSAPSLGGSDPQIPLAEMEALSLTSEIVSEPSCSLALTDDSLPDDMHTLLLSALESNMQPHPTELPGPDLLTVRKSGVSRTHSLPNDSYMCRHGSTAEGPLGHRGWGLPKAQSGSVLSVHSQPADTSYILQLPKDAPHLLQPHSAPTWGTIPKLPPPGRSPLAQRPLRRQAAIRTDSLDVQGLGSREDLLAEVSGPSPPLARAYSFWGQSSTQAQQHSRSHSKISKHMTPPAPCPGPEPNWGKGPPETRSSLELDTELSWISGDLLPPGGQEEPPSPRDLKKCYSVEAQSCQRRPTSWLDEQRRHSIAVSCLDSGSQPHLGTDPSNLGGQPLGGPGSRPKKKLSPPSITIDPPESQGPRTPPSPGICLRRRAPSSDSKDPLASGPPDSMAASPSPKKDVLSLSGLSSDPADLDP
Protocol: as §1, with “After the transfection, the cells were cultured under 5% carbon dioxide at 37 °C for 24 h and then moved to a 28 °C incubator.” left out
as §2

[3] = biological target: recombinant hCaV3.2 channels (Homo sapiens, UniProt O95180); experiment: Whole-cell patch-clamp QPatch 16 X, CaV3.2; type: cell-based
Sequence of recombinant hCaV3.2 channels (O95180 whole entry): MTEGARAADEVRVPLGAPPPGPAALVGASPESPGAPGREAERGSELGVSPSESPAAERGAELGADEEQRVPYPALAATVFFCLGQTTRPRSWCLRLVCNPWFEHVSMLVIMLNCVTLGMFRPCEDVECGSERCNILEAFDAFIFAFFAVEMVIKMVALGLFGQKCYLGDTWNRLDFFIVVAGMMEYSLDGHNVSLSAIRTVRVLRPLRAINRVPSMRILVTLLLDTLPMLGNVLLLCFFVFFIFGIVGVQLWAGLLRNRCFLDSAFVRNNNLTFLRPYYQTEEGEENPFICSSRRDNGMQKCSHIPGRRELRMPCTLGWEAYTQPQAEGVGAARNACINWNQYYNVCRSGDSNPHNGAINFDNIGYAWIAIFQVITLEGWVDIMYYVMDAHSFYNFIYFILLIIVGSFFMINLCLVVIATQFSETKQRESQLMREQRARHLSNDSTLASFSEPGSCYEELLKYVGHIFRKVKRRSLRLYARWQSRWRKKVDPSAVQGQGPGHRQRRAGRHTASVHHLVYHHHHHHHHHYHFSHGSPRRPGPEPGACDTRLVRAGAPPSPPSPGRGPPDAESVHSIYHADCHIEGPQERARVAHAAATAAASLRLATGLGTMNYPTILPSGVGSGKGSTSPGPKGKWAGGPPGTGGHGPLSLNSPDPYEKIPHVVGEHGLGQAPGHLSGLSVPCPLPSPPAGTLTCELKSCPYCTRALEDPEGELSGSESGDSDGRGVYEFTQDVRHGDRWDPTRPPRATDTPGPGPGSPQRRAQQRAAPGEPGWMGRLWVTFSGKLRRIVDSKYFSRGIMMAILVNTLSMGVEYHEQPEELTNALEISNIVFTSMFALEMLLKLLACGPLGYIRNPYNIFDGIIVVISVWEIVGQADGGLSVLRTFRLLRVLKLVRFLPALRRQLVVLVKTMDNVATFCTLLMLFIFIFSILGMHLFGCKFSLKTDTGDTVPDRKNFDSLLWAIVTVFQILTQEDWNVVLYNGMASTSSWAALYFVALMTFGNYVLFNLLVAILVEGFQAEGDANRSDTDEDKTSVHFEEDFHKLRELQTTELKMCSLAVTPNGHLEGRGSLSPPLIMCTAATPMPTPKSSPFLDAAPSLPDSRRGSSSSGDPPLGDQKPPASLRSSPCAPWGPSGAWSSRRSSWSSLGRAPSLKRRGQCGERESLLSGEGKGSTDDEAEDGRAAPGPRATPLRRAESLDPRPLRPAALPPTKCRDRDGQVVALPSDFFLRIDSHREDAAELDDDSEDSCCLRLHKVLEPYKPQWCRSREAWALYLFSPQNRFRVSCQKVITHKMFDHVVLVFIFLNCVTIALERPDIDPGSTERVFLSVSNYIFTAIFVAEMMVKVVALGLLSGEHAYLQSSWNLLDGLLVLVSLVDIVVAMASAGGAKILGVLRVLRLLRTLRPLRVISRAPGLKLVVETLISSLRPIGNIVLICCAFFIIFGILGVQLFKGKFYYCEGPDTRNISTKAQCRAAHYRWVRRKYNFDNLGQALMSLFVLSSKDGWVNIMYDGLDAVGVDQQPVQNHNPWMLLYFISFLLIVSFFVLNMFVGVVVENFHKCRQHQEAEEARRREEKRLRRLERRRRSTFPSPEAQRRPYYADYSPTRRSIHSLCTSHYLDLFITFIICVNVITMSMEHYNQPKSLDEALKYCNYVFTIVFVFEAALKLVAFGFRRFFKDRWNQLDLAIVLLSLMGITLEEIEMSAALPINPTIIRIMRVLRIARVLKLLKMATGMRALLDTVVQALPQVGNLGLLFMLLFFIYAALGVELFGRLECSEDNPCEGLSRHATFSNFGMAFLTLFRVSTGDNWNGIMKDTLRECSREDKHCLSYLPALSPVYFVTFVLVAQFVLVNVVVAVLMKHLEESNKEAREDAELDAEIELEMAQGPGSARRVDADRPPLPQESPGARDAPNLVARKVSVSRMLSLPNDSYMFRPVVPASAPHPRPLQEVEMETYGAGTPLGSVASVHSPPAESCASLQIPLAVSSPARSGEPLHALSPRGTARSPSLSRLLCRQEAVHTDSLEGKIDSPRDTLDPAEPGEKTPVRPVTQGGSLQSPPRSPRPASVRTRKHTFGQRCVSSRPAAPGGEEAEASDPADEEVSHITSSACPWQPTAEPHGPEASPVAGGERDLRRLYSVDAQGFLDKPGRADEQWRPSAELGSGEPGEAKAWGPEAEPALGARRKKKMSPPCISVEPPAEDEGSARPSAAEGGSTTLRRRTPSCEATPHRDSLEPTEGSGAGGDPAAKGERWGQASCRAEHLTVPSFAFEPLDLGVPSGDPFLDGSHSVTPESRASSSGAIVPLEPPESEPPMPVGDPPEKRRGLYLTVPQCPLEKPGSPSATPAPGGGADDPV
Protocol: as §1
Whole-cell patch-clamp experiments were performed on an automated electrophysiology platform QPatch 16 X (Sophion Bioscience A/S, Ballerup, Denmark) in single-hole configuration using 16-channel planar patch chip QPlates (Sophion Bioscience A/S). The extracellular recording solution contained, in mM: TEACl 157, MgCl2 0.5, CaCl2 5, and HEPES 10; pH 7.4 adjusted with TEAOH; and osmolarity 320 mOsm. The intracellular pipette solution contained, in mM: CsF 140, EGTA 1, HEPES 10, and NaCl 10; pH 7.2 adjusted with CsOH; and osmolarity 325 mOsm. […]
as §2

- IC50 [1]: 39.8 ± 3.98 µM
- Potency for CaV3.1-activated currents relative to CaV3.1 window currents ([2]; QPatch versus FLIPR, better for activated currents): > 7 fold
- Emax ([2]; QPatch whole-cell, partial block, read-out: Emax value, block of CaV3.1 current): 82.8 ± 2.55%
- Voltage-dependence of steady-state inactivation of CaV3.1, in words ([2]; QPatch, in the presence of compound): not significantly shifted
- Half-maximal steady-state inactivation V50 of CaV3.2 in the presence of compound ([3]; 0.6 µM compound, control V50 −65.40 ± 1.91 mV (n = 9), n = 4–5): −76.36 ± 1.56 mV
- Emax ([3]; QPatch whole-cell, full inhibition, read-out: Emax value, inhibition of CaV3.2 whole-cell current): ≥ 95%
- IC50 ([3]; QPatch, 200 ms steps to Vmax (−20 mV) from holding −90 mV, n = 4–5, mean ± SEM, read-out: IC50 CaV3.2 whole-cell current): 8.82 ± 2.3 µM
- Shift of half-maximal inactivation V50 of CaV3.2 to hyperpolarized potentials ([3]; steady-state inactivation, 0.6 µM compound, versus control): 11 mV
Compound: COC(=O)[C@H](Cc1c[nH]c2ccccc12)NC(=O)C(C)(c1c[nH]c2ccccc12)c1c[nH]c2ccccc12 [Compound 3, Methyl (2,2-di(1H-indol-3-yl)propanoyl)-L-tryptophanate]
